Results taken from PubChem BioAssay AID806 (SRMLSC, 2007).
Active and inactive are the calls of the source. The rule behind the calls is not given here.

Test system: virus-infected cells, CPE inhibition, dose response
Assay: PubChem AID 806
Conditions: for EC90: measured here: EC90 CPE inhibition; for CC50: measured here: cytotoxicity, cell viability IC50

Compound: COc1ccccc1NC(=O)c1oc2ccc(C)cc2c1C
- EC50: > 60 µM (inactive)
- EC90: > 60 µM
- CC50: > 60 µM

Compound: CC(C)(C)OC(=O)NCCc1nnc(SCc2ccc(Cl)cc2)o1
- EC50: > 60 µM (inactive)
- EC90: > 60 µM
- CC50: > 60 µM

Compound: Cc1nc2nc(-c3ccccc3)[nH]n2c(=O)c1Cc1ccccc1
- EC50: > 60 µM (inactive)
- EC90: > 60 µM
- CC50: > 60 µM

Compound: COCCNC(=O)c1noc2c1CCc1cc(OC)ccc1-2
- EC50: > 60 µM (inactive)
- EC90: > 60 µM
- CC50: > 60 µM

Compound: COc1ccccc1NC(=O)C1CCCCN1S(=O)(=O)c1ccc(F)cc1 (stereo not drawn)
- EC50: > 60 µM (inactive)
- EC90: > 60 µM
- CC50: > 60 µM

Compound: O=C(CCS(=O)(=O)c1cccc2nsnc12)NCc1ccccc1Cl
- EC50: > 60 µM (inactive)
- EC90: > 60 µM
- CC50: > 60 µM

Compound: Cc1cc(C(=O)Nc2c(C)n(C)n(-c3ccccc3)c2=O)c(C)o1
- EC50: > 60 µM (inactive)
- EC90: > 60 µM
- CC50: > 60 µM

Compound: Cc1nc2scc(-c3ccco3)c2c(=O)n1/N=C/N(C)C
- EC50: > 60 µM (inactive)
- EC90: > 60 µM
- CC50: > 60 µM

Compound: CCc1c(C)nc2[nH]nc(-c3ccccc3)n2c1=O
- EC50: > 60 µM (inactive)
- EC90: > 60 µM
- CC50: > 60 µM

Compound: Cc1cc(NC(=O)CSc2nnc(CNc3ccc(F)cc3)n2C2CCCCC2)no1
- EC50: 61.8 µM (inactive)
- EC90: > 60 µM
- CC50: > 60 µM

Compound: COCc1cc(=O)n2c(-c3ccc(C)cc3)n[nH]c2n1
- EC50: > 60 µM (inactive)
- EC90: > 60 µM
- CC50: > 60 µM

Compound: CC(C)NC(=O)CSc1nnc2sc3ccccc3n12
- EC50: > 60 µM (inactive)
- EC90: > 60 µM
- CC50: > 60 µM

Compound: O=C1CC(C(=O)Nc2ccccc2)C2(CCCC2)O1 (stereo not drawn)
- EC50: > 60 µM (inactive)
- EC90: > 60 µM
- CC50: > 60 µM

Compound: Cc1cc(C)n(S(=O)(=O)/C=C/c2ccccc2)n1
- EC50: 56.5 µM (inactive)
- EC90: > 60 µM
- CC50: > 60 µM

Compound: COc1ccc(C(=O)C(CN2CCOCC2)c2ccccc2)cc1F (stereo not drawn)
- EC50: > 60 µM (inactive)
- EC90: > 60 µM
- CC50: > 60 µM

Compound: Cc1cc(C(=O)Nc2c(C)n(C)n(-c3ccccc3)c2=O)cs1
- EC50: > 60 µM (inactive)
- EC90: > 60 µM
- CC50: > 60 µM

Compound: Cc1c(NC(=O)CSc2nnc3sc4ccccc4n23)c(=O)n(-c2ccccc2)n1C
- EC50: > 60 µM (inactive)
- EC90: > 60 µM
- CC50: > 60 µM

Compound: O=C(CSc1ccc2nnc(-c3cccnc3)n2n1)NCc1ccco1
- EC50: > 60 µM (inactive)
- EC90: > 60 µM
- CC50: > 60 µM

Compound: Cc1cccc(NC(=O)C2CC(=O)OC23CCCCC3)c1 (stereo not drawn)
- EC50: > 60 µM (inactive)
- EC90: > 60 µM
- CC50: > 60 µM

Compound: O=C(Nc1ccccc1)N1CCn2c1nc1ccccc12
- EC50: > 60 µM (inactive)
- EC90: > 60 µM
- CC50: > 60 µM

Compound: O=C(O)CCS(=O)(=O)c1nc(-c2cccs2)cc(C(F)(F)F)n1
- EC50: > 60 µM (inactive)
- EC90: > 60 µM
- CC50: > 60 µM

Compound: Cc1nc2nc(-c3cccnc3)[nH]n2c(=O)c1Cc1ccccc1
- EC50: > 60 µM (inactive)
- EC90: > 60 µM
- CC50: > 60 µM

Compound: S=C(Nc1ccccc1)N1CCn2c1nc1ccccc12
- EC50: > 60 µM (inactive)
- EC90: > 60 µM
- CC50: > 60 µM

Compound: O=C(c1cc2ccccc2o1)n1nnc2ccccc21
- EC50: > 60 µM (inactive)
- EC90: > 60 µM
- CC50: > 60 µM

Compound: CC(C)NC(=O)CN1CCN(c2ncccn2)CC1
- EC50: > 60 µM (inactive)
- EC90: > 60 µM
- CC50: > 60 µM

Compound: C=CCSc1nnc(-c2cccnc2)o1
- EC90: > 60 µM
- CC50: > 60 µM

Compound: COc1ccc(-n2ncc3c(Nc4cccc(C)c4)ncnc32)cc1
- EC50: > 60 µM (inactive)
- EC90: > 60 µM
- CC50: > 60 µM

Compound: CC(c1ccco1)N(C(=O)COc1ccc(Cl)cc1Cl)c1ccccn1 (stereo not drawn)
- EC50: > 60 µM (inactive)
- EC90: > 60 µM
- CC50: > 60 µM

Compound: CN(C)CCNc1ncnc2c1sc1nc(N3CCOCC3)c3c(c12)CC(C)(C)SC3
- EC50: > 60 µM (inactive)
- EC90: > 60 µM
- CC50: 16.3 µM

Compound: CC(C)c1ccc(C2NC(=O)NC3=C2CCc2ccccc23)cc1 (stereo not drawn)
- EC50: > 60 µM (inactive)
- EC90: > 60 µM
- CC50: > 60 µM

Compound: Clc1ccc(Nc2ncnc3c2cnn3-c2ccccc2)cc1
- EC50: > 60 µM (inactive)
- EC90: > 60 µM
- CC50: > 60 µM

Compound: COc1cccc(CNC(=O)CCS(=O)(=O)c2cccc3nsnc23)c1
- EC50: > 60 µM (inactive)
- EC90: > 60 µM
- CC50: > 60 µM

Compound: O=c1[nH]c2ccccc2n1Cc1ccccc1
- EC50: > 60 µM (inactive)
- EC90: > 60 µM
- CC50: > 60 µM

Compound: COc1ccc(C(=O)C(CN2CCOCC2)c2ccccc2)cc1 (stereo not drawn)
- EC50: > 60 µM (inactive)
- EC90: > 60 µM
- CC50: > 60 µM

Compound: C#CCSc1nnc(-c2ccc(C)cc2)o1
- EC50: > 60 µM (inactive)
- EC90: > 60 µM
- CC50: > 60 µM

Compound: O=C(Nc1cccc2ncccc12)c1cc2ccccc2o1
- EC50: > 60 µM (inactive)
- EC90: > 60 µM
- CC50: > 60 µM

Compound: O=C(Cc1ccccc1)Nc1ccc(-c2nnc(-c3ccco3)o2)cc1
- EC50: > 60 µM (inactive)
- EC90: > 60 µM
- CC50: > 60 µM

Compound: Cc1ccc(C2NC(=O)NC3=C2CCc2ccccc23)cc1 (stereo not drawn)
- EC50: 1.75 µM
- EC90: > 60 µM
- CC50: > 60 µM

Compound: COc1ccc(NC(=O)C2CC(=O)OC23CCOC(C)(C)C3)cc1 (stereo not drawn)
- EC50: > 60 µM (inactive)
- EC90: > 60 µM
- CC50: > 60 µM

Compound: Cc1cc(NC(=O)C2CC(c3ccc(F)cc3)=NO2)n(-c2ccccc2)n1 (stereo not drawn)
- EC50: > 60 µM (inactive)
- EC90: > 60 µM
- CC50: > 60 µM

Compound: O=C(Nc1ccc2nc3n(c(=O)c2c1)CCCCC3)c1ccccc1Cl
- EC50: > 60 µM (inactive)
- EC90: > 60 µM
- CC50: > 60 µM

Compound: CC(NC(=O)c1ccc(S(=O)(=O)N(C)C)cc1)c1ccccc1 (stereo not drawn)
- EC50: > 60 µM (inactive)
- EC90: > 60 µM
- CC50: > 60 µM

Compound: CN(C)S(=O)(=O)c1ccc(C(=O)NCc2ccccc2)cc1
- EC50: > 60 µM (inactive)
- EC90: > 60 µM
- CC50: > 60 µM

Compound: O=C1CC(C(=O)Nc2ccc(C(=O)N3CCOCC3)cc2)C2(CCCCC2)O1 (stereo not drawn)
- EC50: > 60 µM (inactive)
- EC90: > 60 µM
- CC50: > 60 µM

Compound: COc1cccc(C(=O)Nc2ccc(-c3nnc(-c4ccco4)o3)cc2)c1
- EC50: > 60 µM (inactive)
- EC90: > 60 µM
- CC50: > 60 µM

Compound: COC(=O)Nc1ccc(S(=O)(=O)N2CCCCC2C(=O)NCc2ccco2)cc1 (stereo not drawn)
- EC50: > 60 µM (inactive)
- EC90: > 60 µM
- CC50: > 60 µM

Compound: CC1CCCN(C(=O)Nc2cccc(NC(=O)N3CCCC(C)C3C)c2)C1C (stereo not drawn)
- EC50: > 60 µM (inactive)
- EC90: > 60 µM
- CC50: > 60 µM

Compound: CCOc1ccc(NC(=O)CCS(=O)(=O)c2cccc3nsnc23)cc1
- EC50: > 60 µM (inactive)
- EC90: > 60 µM
- CC50: > 60 µM
